Reference: paper PMC11191600 (ACS chemical neuroscience, 2024)
≈ marks a conversion by molar mass, not a printed value. Where two headings read alike, the source gives them in different places.

What was measured:
[1] = target: T1, human dopamine D4.4 receptor (Homo sapiens, UniProt P21917); assay: Human dopamine D4.4 receptor radioligand binding assay (Eurofins); set-up: % Inhibition at D4.4: dose or concentration left out as unconfirmed; settings: for % Inhibition at 10 μM D4.4: [3H]Spiperone binding; for inhibition at 10 µM: read-out: % Inhibition at 10 μM D4.4
T1 sequence (P21917 1-419): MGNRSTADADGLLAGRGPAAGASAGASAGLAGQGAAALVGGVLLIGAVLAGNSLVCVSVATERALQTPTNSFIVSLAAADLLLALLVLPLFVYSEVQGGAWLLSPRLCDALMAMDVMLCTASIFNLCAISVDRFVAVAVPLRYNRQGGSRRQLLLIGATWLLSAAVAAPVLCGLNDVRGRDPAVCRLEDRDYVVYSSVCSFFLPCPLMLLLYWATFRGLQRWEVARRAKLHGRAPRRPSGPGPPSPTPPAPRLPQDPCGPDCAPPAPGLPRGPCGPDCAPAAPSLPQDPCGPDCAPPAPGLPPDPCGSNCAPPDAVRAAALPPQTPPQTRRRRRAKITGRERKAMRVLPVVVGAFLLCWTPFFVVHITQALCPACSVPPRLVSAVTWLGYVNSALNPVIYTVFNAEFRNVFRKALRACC

[2] = target: human dopamine D2S receptor (Homo sapiens, UniProt P14416); assay: Human dopamine D2S receptor radioligand binding assay (Eurofins); settings: for % Inhibition at 10 μM D2S: [3H]Spiperone binding, Eurofins Discovery
[3] = target: Human recombinant dopamine D2L receptor (Homo sapiens, UniProt P14416); assay: Human dopamine D2L receptor radioligand binding assay (Eurofins); settings: for % Inhibition at 10 μM D2L: [3H]Spiperone binding, Eurofins Discovery
[4] = target: human dopamine D3 receptor (Homo sapiens, UniProt P35462); assay: Human dopamine D3 receptor radioligand binding assay (Eurofins); settings: for % Inhibition at 10 μM D3: [3H]Spiperone binding, Eurofins Discovery
[5] = target: human dopamine D1 receptor (Homo sapiens, UniProt P21728); assay: Human dopamine D1 receptor radioligand binding assay (Eurofins); settings: for % Inhibition at 10 μM D1: [3H]SCH-23390 binding, Eurofins Discovery
[6] = Plasma protein binding, equilibrium dialysis, human plasma; assay type: in vitro ADME
[7] = Plasma protein binding, equilibrium dialysis, rat plasma; assay type: in vitro ADME
[8] = Microsomal stability, human hepatic microsomes; assay type: in vitro ADME; settings: predicted hepatic clearance
[9] = Microsomal stability, rat hepatic microsomes; assay type: in vitro ADME; settings: predicted hepatic clearance
[10] = In vivo pharmacokinetics, intravenous cassette dosing in rats; set-up: species or system male Sprague-Dawley rats; settings: rat; for AUC (area under the curve) / CLp (plasma clearance) / Vss (volume of distribution at steady-state) / t1/2 (terminal phase plasma half-life): intravenous 0.2 mg/kg, cassette; for in vivo clearance relative to hepatic blood flow (superhepatic clearance): intravenous dosing
[11] = Kinetic solubility (shake flask, McIlvaine buffer); assay type: physicochemical; settings: for Solubility pH = 2.2 / Solubility pH = 6.8: kinetic, 100 µM, 18 hours room temperature; for Solubility pH = 2.2: McIlvaine buffer pH 2.2; for Solubility pH = 6.8: McIlvaine buffer pH 6.8; for solubility at 18 h: McIlvaine buffer, kinetic from dmso stock
[12] = Metabolite profiling in human hepatocytes; assay type: in vitro ADME; settings: 4 h
[13] = Metabolite profiling in rat hepatocytes; assay type: in vitro ADME; settings: 4 h
[14] = read-out: D4.4 IC50, Eurofins Discovery
[15] = read-out: D4.4 Ki, Eurofins Discovery

human dopamine D2S receptor, sequence (P14416 1-414 isoform P14416-2): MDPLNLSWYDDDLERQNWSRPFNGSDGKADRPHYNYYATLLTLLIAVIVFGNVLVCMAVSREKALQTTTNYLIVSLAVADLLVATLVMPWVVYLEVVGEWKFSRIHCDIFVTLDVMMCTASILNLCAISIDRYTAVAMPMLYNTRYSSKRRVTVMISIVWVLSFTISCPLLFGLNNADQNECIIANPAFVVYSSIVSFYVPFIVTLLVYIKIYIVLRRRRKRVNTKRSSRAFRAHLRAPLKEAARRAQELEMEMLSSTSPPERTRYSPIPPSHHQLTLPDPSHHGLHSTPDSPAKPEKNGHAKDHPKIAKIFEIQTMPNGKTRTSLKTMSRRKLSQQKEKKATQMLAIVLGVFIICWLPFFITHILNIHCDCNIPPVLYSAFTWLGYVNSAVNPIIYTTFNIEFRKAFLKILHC
human dopamine D1 receptor, sequence (P21728 whole entry): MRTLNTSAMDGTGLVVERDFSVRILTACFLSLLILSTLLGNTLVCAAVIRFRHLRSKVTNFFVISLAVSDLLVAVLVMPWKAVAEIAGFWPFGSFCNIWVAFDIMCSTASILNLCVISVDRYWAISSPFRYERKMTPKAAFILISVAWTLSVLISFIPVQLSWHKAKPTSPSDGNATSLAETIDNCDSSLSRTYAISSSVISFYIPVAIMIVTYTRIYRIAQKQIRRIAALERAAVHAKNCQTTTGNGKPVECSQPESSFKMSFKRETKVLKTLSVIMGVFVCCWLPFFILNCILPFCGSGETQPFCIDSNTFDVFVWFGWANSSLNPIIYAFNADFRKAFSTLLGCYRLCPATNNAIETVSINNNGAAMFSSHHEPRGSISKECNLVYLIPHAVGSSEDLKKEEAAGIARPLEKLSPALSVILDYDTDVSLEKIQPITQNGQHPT
human dopamine D3 receptor, sequence (P35462 whole entry): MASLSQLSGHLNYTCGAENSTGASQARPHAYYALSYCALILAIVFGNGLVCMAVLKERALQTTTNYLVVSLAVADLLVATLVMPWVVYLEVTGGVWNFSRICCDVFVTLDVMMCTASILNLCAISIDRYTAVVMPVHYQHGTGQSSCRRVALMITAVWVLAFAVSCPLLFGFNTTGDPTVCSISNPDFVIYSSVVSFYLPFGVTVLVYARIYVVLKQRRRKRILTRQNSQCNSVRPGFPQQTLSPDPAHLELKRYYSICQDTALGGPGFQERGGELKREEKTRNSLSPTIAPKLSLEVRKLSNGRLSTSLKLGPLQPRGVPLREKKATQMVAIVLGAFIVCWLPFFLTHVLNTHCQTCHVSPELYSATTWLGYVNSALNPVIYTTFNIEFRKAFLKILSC
Human recombinant dopamine D2L receptor, sequence (P14416 whole entry): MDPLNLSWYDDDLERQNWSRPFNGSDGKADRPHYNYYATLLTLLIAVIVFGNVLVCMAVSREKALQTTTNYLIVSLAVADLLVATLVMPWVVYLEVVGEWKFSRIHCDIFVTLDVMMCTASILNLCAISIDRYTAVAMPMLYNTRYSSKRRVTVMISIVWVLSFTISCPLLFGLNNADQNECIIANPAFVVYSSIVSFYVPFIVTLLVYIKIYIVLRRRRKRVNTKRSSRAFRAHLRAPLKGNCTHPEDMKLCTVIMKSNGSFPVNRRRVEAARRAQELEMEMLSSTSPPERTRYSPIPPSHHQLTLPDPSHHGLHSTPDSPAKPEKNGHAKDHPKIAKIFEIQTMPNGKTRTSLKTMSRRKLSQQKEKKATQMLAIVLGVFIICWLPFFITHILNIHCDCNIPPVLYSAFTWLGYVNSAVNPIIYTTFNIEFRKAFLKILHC

Row | Structure (SMILES) | % Inhibition at 10 μM D4.4 ([1]; Eurofins Discovery) [%] | IC50 [1, 14] [nM] | Ki [1, 15] [nM] | % Inhibition at 10 μM D2S [2] [%] | % Inhibition at 10 μM D2L [3] [%] | % Inhibition at 10 μM D3 [4] [%] | % Inhibition at 10 μM D1 [5] [%] | fu,plasma human (fraction unbound) [6] | fu,plasma rat (fraction unbound) [7] | CLH human (hepatic clearance) [8] [mL/min/kg] | CLH rat (hepatic clearance) [9] [mL/min/kg] | Solubility pH = 2.2 [11] [µM] | Solubility pH = 6.8 [11] [µM] | other results
1 | Cc1ccc(C(=O)N2CC3(CCN(Cc4ccc(F)c(F)c4)CC3)C2)cc1C [Compound 4] | 88 | 2790 | 250 | 8 | 9 | 9 | 21 | 0.01 | 0.03 | 16.9 | 59.1 | 95.3 | 88.9 | AUC (area under the curve) [10]: 28.7 ng·h/mL; CLp (plasma clearance) [10]: 116 mL/min/kg; Vss (volume of distribution at steady-state) [10]: 5.52 L/kg; t1/2 (terminal phase plasma half-life) [10]: 1.05 h; in vivo clearance relative to hepatic blood flow (superhepatic clearance) [10]: > 100 % Qh
2 | Cc1ccc(C(=O)N2CC3(CCN(Cc4n[nH]c5cc(F)ccc45)CC3)C2)cc1C [Compound 6] | 90 | 150 | 43 | 15 | 3 | 25 | −4 |  |  |  |  | 89.4 | 83.1 | 
3 | Cc1ccc(C(=O)N2CC3(CCN(Cc4ccc(Cl)c(Cl)c4)CC3)C2)cc1C [Compound 9] | 91 | 81 | 22 | 25 | 24 | 62 | 24 |  |  |  |  | 84.2 | 31.6 | 
4 | COc1ncc(CN2CCC3(CC2)CN(C(=O)c2ccc(C)c(C)c2)C3)cc1F [Compound 10] |  |  |  |  |  |  |  |  |  |  |  |  |  | inhibition at 10 µM [1]: 66%
5 | Cc1ccc(C(=O)N2CC3(CCN(Cc4cn(C)c5ccccc45)CC3)C2)cc1C [Compound 12] |  |  |  |  |  |  |  |  |  |  |  |  |  | IC50 [1]: 280 nM; Ki [1]: 76 nM; inhibition at 10 µM [1]: 92%; inhibition at 10 µM ([2]; read-out: % Inhibition at 10 μM D2S): 24%; inhibition at 10 µM ([3]; read-out: % Inhibition at 10 μM D2L): 16%; inhibition at 10 µM ([4]; read-out: % Inhibition at 10 μM D3): 19%; inhibition at 10 µM ([5]; read-out: % Inhibition at 10 μM D1): 27%; solubility at 18 h ([11]; pH 2.2, aqueous buffer): 88.3 µM (≈ 35.5 µg/mL); solubility at 18 h ([11]; pH 6.8, aqueous buffer): 87.4 µM (≈ 35.1 µg/mL)
6 | O=C(c1ccc(Cl)cc1Cl)N1CC2(CCN(Cc3c[nH]c4cc(F)ccc34)CC2)C1 [Compound 19] | 92 | 82 | 23 | 14 | 23 | 30 | 21 |  |  |  |  |  |  | 
7 | O=C(c1ccc2c(c1)OCO2)N1CC2(CCN(Cc3c[nH]c4cc(F)ccc34)CC2)C1 [Compound 20] | 95 | 84 | 23 | 12 | 18 | 14 | 16 | 0.10 | 0.23 | 13.7 | 36.2 | 86.4 | 82.7 | AUC (area under the curve) [10]: 26.4 ng·h/mL; CLp (plasma clearance) [10]: 126 mL/min/kg; Vss (volume of distribution at steady-state) [10]: 44.4 L/kg; t1/2 (terminal phase plasma half-life) [10]: 4.55 h; in vivo clearance relative to hepatic blood flow (superhepatic clearance) [10]: > 100 % Qh
8 | O=C(c1cc(Cl)cc(Cl)c1)N1CC2(CCN(Cc3c[nH]c4cc(F)ccc34)CC2)C1 [Compound 28] | 49 |  |  |  |  |  |  |  |  |  |  |  |  | 
9 | Cc1cccc(C(=O)N2CC3(CCN(Cc4c[nH]c5cc(F)ccc45)CC3)C2)c1 [Compound 32] | 92 | 490 | 140 | 18 | 18 | 12 | 10 | 0.06 | 0.14 | 14.7 | 46.2 | 91.2 | 87.0 | 
10 | Cc1ccc(S(=O)(=O)N2CC3(CCN(Cc4c[nH]c5cc(F)ccc45)CC3)C2)cc1 [Compound 34] | 94 | 120 | 33 | 17 | 50 | 49 | 47 |  |  |  |  |  |  | 
11 | Cc1ccc(C(=O)N2CCC3(CCN(Cc4c[nH]c5cc(F)ccc45)CC3)C2)cc1C [Compound 42, (3,4-dimethylphenyl)(8-[(6-fluoro-1H-indol-3-yl)methyl)-2,8-diazaspiro[4.5]decan-2-yl)methanone] |  |  |  |  |  |  |  |  |  |  |  |  |  | % Inhibition at D4.4 ([1]; screened at Eurofins): 44%

Now from value to compound, other results behind:

Row | % Inhibition at 10 μM D4.4 ([1]; Eurofins Discovery) [%] | IC50 [1, 14] [nM] | Ki [1, 15] [nM] | % Inhibition at 10 μM D2S [2] [%] | % Inhibition at 10 μM D2L [3] [%] | % Inhibition at 10 μM D3 [4] [%] | % Inhibition at 10 μM D1 [5] [%] | fu,plasma human (fraction unbound) [6] | fu,plasma rat (fraction unbound) [7] | CLH human (hepatic clearance) [8] [mL/min/kg] | CLH rat (hepatic clearance) [9] [mL/min/kg] | Solubility pH = 2.2 [11] [µM] | Solubility pH = 6.8 [11] [µM] | Structure (SMILES) | other results
12 | 94 | 200 | 56 | 25 | 24 | 27 | 35 |  |  |  |  | 83.4 | 87.0 | Cc1ccc(C(=O)N2CC3(CCN(Cc4c[nH]c5cc(F)ccc45)CC3)C2)cc1C [Compound 5] | 
13 | 85 | 990 | 270 |  |  |  |  |  |  |  |  | 90.5 | 88.2 | Cc1ccc(C(=O)N2CC3(CCN(Cc4c[nH]c5cc(F)ccc45)CC3C)C2)cc1C (stereo not drawn) [Compound 13] | 
14 | 89 | 1920 | 530 |  |  |  |  |  |  |  |  |  |  | Cc1ccc(C(=O)N2CC3(CCN(Cc4c[nH]c5cc(F)ccc45)C(C)C3)C2)cc1C (stereo not drawn) [Compound 14] | 
15 | 99 | 62 | 17 | 5 | 20 | 13 | 27 | 0.05 | 0.15 | 17.3 | 49.2 | 91.9 | 85.3 | Cc1ccc(C(=O)N2CC3(CCN(Cc4c[nH]c5cc(F)ccc45)CC3)C2)cc1 [Compound 29] | 
16 | 93 | 210 | 59 | 0 | −7 | 11 | 9 | 0.19 | 0.26 | 16.0 | 39.0 | 92.9 | 87.7 | Cc1ccccc1C(=O)N1CC2(CCN(Cc3c[nH]c4cc(F)ccc34)CC2)C1 [Compound 33] | AUC (area under the curve) [10]: 27.0 ng·h/mL; CLp (plasma clearance) [10]: 123 mL/min/kg; Vss (volume of distribution at steady-state) [10]: 36.9 L/kg; t1/2 (terminal phase plasma half-life) [10]: 4.02 h; in vivo clearance relative to hepatic blood flow (superhepatic clearance) [10]: > 100 % Qh; piperidine N-dealkylation metabolite, relative percentage [12]: 6.3%; turnover in hepatocytes [12]: low turnover; parent compound remaining postincubation ([12]; LC/MS relative percentage): 87.9%; piperidine N-dealkylation metabolite, relative percentage [13]: 32.4%; turnover in hepatocytes [13]: moderate turnover; parent compound remaining postincubation ([13]; LC/MS relative percentage): 65.8%
